Measurements reported in patent US20260198493A1, “HYDRAZIDE COMPOUND AND AGRICULTURAL/HORTICULTURAL FUNGICIDE” (Nippon Soda Co., Ltd., priority 2022, published 2026).

How the values were obtained:
Botrytis cinerea [1] = assay type: cell-based; conditions: 120 h, 25 ppm by volume, Vogel medium, 20° C., five days, dark, read-out: growth inhibition ratio
[2] = tested on: Erysiphe graminis f.sp.tritici; experiment: Control test of wheat powdery mildew disease (sprayed young wheat seedlings); assay type: in vivo; conditions: Blumeria graminis, 144 h, 125 ppm by mass spray, six days after inoculation
From the text: [formula] […] Then, the drug liquid was sprayed onto young wheat seedlings cultivated in a nursery pot (variety “Chihoku”, one-to two-leaf stage), and then air-dried. Thereafter, conidiospores of fungi causing wheat powdery mildew disease (Erysiphe graminis f.sp.tritici) were sprinkled on the young wheat seedlings to inoculate them (treated area). As a control, the conidiospores of fungi causing wheat powdery mildew disease (Erysiphe graminis f.sp.tritici) were sprinkled on young wheat seedlings unsprayed with the drug liquid (untreated area). They were left still in a greenhouse at 20° C. Six days after inoculation, leaves of young wheat seedlings were visually observed, and the lesion area ratio was determined to calculate the control value in a similar manner to the previous test.

Colletotrichum acutatum = experiment: Fungicidal effect test against fungi causing apple anthracnose; conditions: 96 h, read-out: growth inhibition ratio
Venturia inaequalis = experiment: Control test of apple scab disease (sprayed young apple seedlings); assay type: in vivo; conditions: 125 ppm by mass spray, 12 to 14 days after inoculation
Method: [formula] […] Then, the drug liquid was sprayed onto young apple seedlings cultivated in a nursery pot (variety “Orin”, three-to four-leaf stage), and then air-dried. Thereafter, conidiospores of fungi causing apple scab disease (Venturia inaequalis) were inoculated thereon (treated area). As a control, the conidiospores were inoculated in a similar manner to the above on young apple seedlings unsprayed with the drug liquid (untreated area). They were left still at 20° C. in a moist room with light and dark cycles repeated every 12 hours. 12 Days to 14 days after inoculation, leaves of young apple seedlings were visually observed, and the control value was calculated from the lesion area ratio in accordance with the equation used in the control test of cucumber gray mold.

Glomerella cingulata = experiment: Fungicidal effect test against fungi causing grape ripe rot disease; conditions: Colletotrichum gloeosporioides, 72 h, read-out: growth inhibition ratio
Botrytis cinerea [3] = experiment: Control test of cucumber gray mold (sprayed young cucumber seedlings); assay type: in vivo; conditions: 96 h, four days after inoculation; for pest or weed control at 25 ppm: 25 ppm by mass spray; for pest or weed control at 125 ppm: 125 ppm by mass spray
Method: Then, the drug liquid was sprayed onto young cucumber seedlings cultivated in a nursery pot (variety “Jihai”-based, cotyledon stage), and then air-dried. […] They were left still in a moist room at 20° C. Four days after inoculation, leaves of the young cucumber seedlings were visually observed, and the control value was calculated from the lesion area ratio in accordance with the following equation. [formula]

CC(=O)N(Cc1ccc(C)cc1C)NC(=O)c1cc(C)nnc1Oc1cccc(C2CC2)c1F [b-5, N′-acetyl-3-(3-cyclopropyl-2-fluorophenoxy)-N′-(2,4-dimethylbenzyl)-6-methylpyridazine-4-carbohydrazide]
≥ 75%: inhibition of growth at 25 ppm (Botrytis cinerea [1]) | pest or weed control at 125 ppm [2] | inhibition of growth at 25 ppm (Colletotrichum acutatum) | pest or weed control at 125 ppm (Venturia inaequalis) | inhibition of growth at 25 ppm (Glomerella cingulata) | pest or weed control at 25 ppm (Botrytis cinerea [3]) | pest or weed control at 125 ppm (Botrytis cinerea [3])

CC(=O)N(Cc1ccc(C)cc1C)NC(=O)c1cc(C)ncc1Oc1cccc(C2CC2)c1F [b-9, N′-acetyl-5-(3-cyclopropyl-2-fluorophenoxy)-N′-(2,4-dimethylbenzyl)-2-methylisonicotinohydrazide]
≥ 75%: inhibition of growth at 25 ppm (Botrytis cinerea [1]) | pest or weed control at 125 ppm [2] | inhibition of growth at 25 ppm (Colletotrichum acutatum) | pest or weed control at 125 ppm (Venturia inaequalis) | inhibition of growth at 25 ppm (Glomerella cingulata) | pest or weed control at 25 ppm (Botrytis cinerea [3]) | pest or weed control at 125 ppm (Botrytis cinerea [3])

Cc1ccc(CN(NC(=O)c2cc(C)nnc2Oc2cccc(C3CC3)c2F)C(=O)C(C)C)c(C)c1 [b-18]
≥ 75%: inhibition of growth at 25 ppm (Botrytis cinerea [1]) | pest or weed control at 125 ppm [2] | inhibition of growth at 25 ppm (Colletotrichum acutatum) | pest or weed control at 125 ppm (Venturia inaequalis) | inhibition of growth at 25 ppm (Glomerella cingulata) | pest or weed control at 125 ppm (Botrytis cinerea [3])

CCCC(=O)N(Cc1ccc(C)cc1C)NC(=O)c1cc(C)nnc1Oc1cccc(C2CC2)c1F [b-20]
≥ 75%: inhibition of growth at 25 ppm (Botrytis cinerea [1]) | pest or weed control at 125 ppm [2] | inhibition of growth at 25 ppm (Colletotrichum acutatum) | pest or weed control at 125 ppm (Venturia inaequalis) | inhibition of growth at 25 ppm (Glomerella cingulata) | pest or weed control at 125 ppm (Botrytis cinerea [3])

CCOC(=O)N(Cc1ccc(C)cc1C)NC(=O)c1cc(C)nnc1Oc1cccc(C2CC2)c1F [b-21]
≥ 75%: inhibition of growth at 25 ppm (Botrytis cinerea [1]) | pest or weed control at 125 ppm [2] | inhibition of growth at 25 ppm (Colletotrichum acutatum) | pest or weed control at 125 ppm (Venturia inaequalis) | inhibition of growth at 25 ppm (Glomerella cingulata) | pest or weed control at 25 ppm (Botrytis cinerea [3]) | pest or weed control at 125 ppm (Botrytis cinerea [3])

Cc1ccc(CN(NC(=O)c2cc(C)nnc2Oc2cccc(C3CC3)c2F)C(=O)C2CC2)c(C)c1 [b-25]
≥ 75%: inhibition of growth at 25 ppm (Botrytis cinerea [1]) | pest or weed control at 125 ppm [2] | inhibition of growth at 25 ppm (Colletotrichum acutatum) | pest or weed control at 125 ppm (Venturia inaequalis) | inhibition of growth at 25 ppm (Glomerella cingulata) | pest or weed control at 25 ppm (Botrytis cinerea [3]) | pest or weed control at 125 ppm (Botrytis cinerea [3])

COC(=O)N(Cc1ccc(C)c(C)c1)NC(=O)c1cc(C)nnc1Oc1cccc(C2CC2)c1F [b-29]
≥ 75%: inhibition of growth at 25 ppm (Botrytis cinerea [1]) | pest or weed control at 125 ppm [2] | inhibition of growth at 25 ppm (Colletotrichum acutatum) | pest or weed control at 125 ppm (Venturia inaequalis) | inhibition of growth at 25 ppm (Glomerella cingulata) | pest or weed control at 25 ppm (Botrytis cinerea [3]) | pest or weed control at 125 ppm (Botrytis cinerea [3])

COCOc1ccc(CN(NC(=O)c2cc(C)nnc2Oc2cccc(C3CC3)c2F)C(=O)OC)c(C)c1 [b-30]
≥ 75%: inhibition of growth at 25 ppm (Botrytis cinerea [1]) | pest or weed control at 125 ppm [2] | inhibition of growth at 25 ppm (Colletotrichum acutatum) | pest or weed control at 125 ppm (Venturia inaequalis) | inhibition of growth at 25 ppm (Glomerella cingulata) | pest or weed control at 25 ppm (Botrytis cinerea [3]) | pest or weed control at 125 ppm (Botrytis cinerea [3])

COC(=O)N(Cc1ccc(OC)cc1C)NC(=O)c1cc(C)nnc1Oc1cccc(C2CC2)c1F [b-44]
≥ 75%: inhibition of growth at 25 ppm (Botrytis cinerea [1]) | pest or weed control at 125 ppm [2] | inhibition of growth at 25 ppm (Colletotrichum acutatum) | pest or weed control at 125 ppm (Venturia inaequalis) | inhibition of growth at 25 ppm (Glomerella cingulata) | pest or weed control at 25 ppm (Botrytis cinerea [3]) | pest or weed control at 125 ppm (Botrytis cinerea [3])

COC(=O)N(Cc1ccc(C)cc1C)NC(=O)c1cc(C)nnc1Oc1cccc(OC)c1F [b-52]
≥ 75%: inhibition of growth at 25 ppm (Botrytis cinerea [1]) | pest or weed control at 125 ppm [2] | inhibition of growth at 25 ppm (Colletotrichum acutatum) | pest or weed control at 125 ppm (Venturia inaequalis) | inhibition of growth at 25 ppm (Glomerella cingulata) | pest or weed control at 25 ppm (Botrytis cinerea [3]) | pest or weed control at 125 ppm (Botrytis cinerea [3])

COC(=O)N(Cc1ccc(Cl)cc1Cl)NC(=O)c1cc(C)nnc1Oc1cccc(C2CC2)c1F [b-57]
≥ 75%: inhibition of growth at 25 ppm (Botrytis cinerea [1]) | pest or weed control at 125 ppm [2] | inhibition of growth at 25 ppm (Colletotrichum acutatum) | pest or weed control at 125 ppm (Venturia inaequalis) | inhibition of growth at 25 ppm (Glomerella cingulata) | pest or weed control at 125 ppm (Botrytis cinerea [3])

COC(=O)N(CCc1ccc(Cl)cc1Cl)NC(=O)c1cc(C)nnc1Oc1cccc(C2CC2)c1F [b-65]
≥ 75%: pest or weed control at 125 ppm [2] | inhibition of growth at 25 ppm (Colletotrichum acutatum) | pest or weed control at 125 ppm (Venturia inaequalis) | inhibition of growth at 25 ppm (Glomerella cingulata)

COC(=O)N(Cc1ccc(C)cc1C)NC(=O)c1cc(Cl)nnc1Oc1ccc2c(c1)CCC2 [b-79]
≥ 75%: inhibition of growth at 25 ppm (Botrytis cinerea [1]) | inhibition of growth at 25 ppm (Colletotrichum acutatum) | pest or weed control at 125 ppm (Venturia inaequalis) | inhibition of growth at 25 ppm (Glomerella cingulata) | pest or weed control at 125 ppm (Botrytis cinerea [3])

COC(=O)N(Cc1ccc(OC)cc1OC)NC(=O)c1cc(C)ncc1Oc1cccc(C2CC2)c1F [b-85]
≥ 75%: inhibition of growth at 25 ppm (Botrytis cinerea [1]) | pest or weed control at 125 ppm [2] | pest or weed control at 125 ppm (Venturia inaequalis) | inhibition of growth at 25 ppm (Glomerella cingulata) | pest or weed control at 25 ppm (Botrytis cinerea [3]) | pest or weed control at 125 ppm (Botrytis cinerea [3])

COC(=O)N(Cc1ccc(OC)cc1OC)NC(=O)c1nc(C)ncc1Oc1cccc(C2CC2)c1F [b-86]
≥ 75%: inhibition of growth at 25 ppm (Botrytis cinerea [1]) | pest or weed control at 125 ppm [2] | pest or weed control at 125 ppm (Venturia inaequalis) | inhibition of growth at 25 ppm (Glomerella cingulata) | pest or weed control at 25 ppm (Botrytis cinerea [3]) | pest or weed control at 125 ppm (Botrytis cinerea [3])

COC(=O)N(Cc1ccc(OC)cc1)NC(=O)c1cc(C)nnc1Oc1cccc(C2CC2)c1F [b-100]
≥ 75%: inhibition of growth at 25 ppm (Botrytis cinerea [1]) | pest or weed control at 125 ppm [2] | inhibition of growth at 25 ppm (Colletotrichum acutatum) | pest or weed control at 125 ppm (Venturia inaequalis) | inhibition of growth at 25 ppm (Glomerella cingulata)

COC(=O)N(Cc1ccccc1)NC(=O)c1cc(C)nnc1Oc1cccc(C2CC2)c1F [b-102]
≥ 75%: inhibition of growth at 25 ppm (Botrytis cinerea [1]) | pest or weed control at 125 ppm [2] | inhibition of growth at 25 ppm (Colletotrichum acutatum) | pest or weed control at 125 ppm (Venturia inaequalis) | inhibition of growth at 25 ppm (Glomerella cingulata)

COC(=O)N(Cc1ccc(OC)cc1C)NC(=O)c1cc(C)ncc1Oc1cccc(C2CC2)c1F [b-104]
≥ 75%: inhibition of growth at 25 ppm (Botrytis cinerea [1]) | pest or weed control at 125 ppm [2] | inhibition of growth at 25 ppm (Colletotrichum acutatum) | pest or weed control at 125 ppm (Venturia inaequalis) | pest or weed control at 25 ppm (Botrytis cinerea [3]) | pest or weed control at 125 ppm (Botrytis cinerea [3])

COC(=O)N(Cc1ccc2c(c1)OCO2)NC(=O)c1cc(C)nnc1Oc1cccc(C2CC2)c1F [b-110]
≥ 75%: inhibition of growth at 25 ppm (Botrytis cinerea [1]) | pest or weed control at 125 ppm [2] | inhibition of growth at 25 ppm (Colletotrichum acutatum) | pest or weed control at 125 ppm (Venturia inaequalis) | inhibition of growth at 25 ppm (Glomerella cingulata)

COC(=O)N(Cc1ccc(C)cc1C)NC(=O)c1cc(C)nnc1Oc1cccc(OC)c1 [b-123]
≥ 75%: inhibition of growth at 25 ppm (Botrytis cinerea [1]) | pest or weed control at 125 ppm [2] | inhibition of growth at 25 ppm (Colletotrichum acutatum) | pest or weed control at 125 ppm (Venturia inaequalis) | inhibition of growth at 25 ppm (Glomerella cingulata)

COC(=O)N(Cc1ccc(-n2cccn2)cc1)NC(=O)c1cc(C)nnc1Oc1cccc(C2CC2)c1F [b-172]
≥ 75%: inhibition of growth at 25 ppm (Botrytis cinerea [1]) | inhibition of growth at 25 ppm (Colletotrichum acutatum) | pest or weed control at 125 ppm (Venturia inaequalis) | inhibition of growth at 25 ppm (Glomerella cingulata)

COC(=O)N(Cc1ccc(C)cc1C)NC(=O)c1cc(C)nnc1Oc1cccc(F)c1Cl [b-180]
≥ 75%: inhibition of growth at 25 ppm (Botrytis cinerea [1]) | pest or weed control at 125 ppm [2] | pest or weed control at 125 ppm (Venturia inaequalis)

COC(=O)N(Cc1ccc(C)cc1C)NC(=O)c1cc(-n2cccn2)ncc1Oc1cccc(C2CC2)c1F [b-186]
≥ 75%: inhibition of growth at 25 ppm (Botrytis cinerea [1]) | inhibition of growth at 25 ppm (Colletotrichum acutatum) | pest or weed control at 125 ppm (Venturia inaequalis) | inhibition of growth at 25 ppm (Glomerella cingulata) | pest or weed control at 25 ppm (Botrytis cinerea [3]) | pest or weed control at 125 ppm (Botrytis cinerea [3])
